Each structure is given as a SMILES string.

One assay relates to SOD1 mice. Put plainly: Respiratory function (tidal volume, respiratory rate) in SOD1 mice, model of familial ALS. The class given is in vivo, mouse. The protocol: SOD1 mice are mutant mice which provide an animal model for an inherited form of ALS which is more commonly referred to as familial ALS. […] These parameters of respiratory function were subsequently reevaluated 2 minutes after drug treatment.

The test system of another assay is T8 SCI rats. Put plainly: Respiratory function by head-out plethysmograph in conscious rats after T8 contusion SCI. The class given is in vivo, rat. To be noted: for Te (expiratory time) / Ti (inspiratory time) / Tv (tidal volume) / Ve (minute ventilation): 24 hours after SCI. The protocol: Female Sprague-Dawley rats (250–280 g and 360–390 g; Taconic, Germantown, N.Y.) were anesthetized with 4% chloral hydrate (360 mg/kg, i.p.). An incomplete spinal courd contusion injury was produced at T8 with a weight drop device (10 g×2.5 cm) as previously described (Wrathall et al., 1985). After SCI, manual expression of bladders was performed twice daily until a reflex bladder was established. Animal care also included housing the rats in pairs to reduce isolation-induced stress, maintaining ambient temperature at 22–25° C., and using highly absorbent bedding. No prophylactic antibiotics were given.
Experiments were conducted in unanesthetized, awake, spontaneously breathing rats at 24 hours prior to SCI, at 24 hours p.i. and weekly afterwards at 1,2,3, and 4 weeks p.i. (1) Acclimatization of the Animals. […] Animals were placed in the body cylinder of the plethysmograph (FIG. 1a) for 60 minutes per day for at least 5 days. […] (2) Non-Invasive Measurements of Respiratory Rate, Tidal Volume and Minute Ventilation. Non-invasive measurements of respiratory function in conscious rats were performed with a restrained head-out plethysmograph specially designed for rodents (BUXCO Electronics, Inc., Sharon, Conn.) (FIG. 1a). The plethymograph apparatus has a neck seal that prevents leakage of air from between the animal's neck and the plethymograph opening. Displacement of the thoracic wall produced by the animal's respiratory movements causes changes in the cylinder pressure, which results in air flowing across a pneumotachograph located on the wall of the cylinder. The pressure drop across the pneumotachograph is measured with a pressure transducer and is proportional to the flow. This signal is amplified and integrated into volume. From measurements of volume and flow, a computer and appropriate software provides respiratory parameters, such as respiratory rate (f), tidal volume (Vt), minute ventilation (Ve), peak inspiratory flow, peak expiratory flow, inspiratory time (Ti), expiratory time (Te), and accumulated volume. An additional opening on the wall of the box allows volume calibration by injecting and removing air from the box with a calibrated syringe.
The noise level in the laboratory was kept to a minimum in order not to startle the animals. Further, the animals were visually isolated from the investigators by means of a chamber made of an opaque material that surrounded and covered the front-end of the body plethysmograph (FIG. 1b). Baseline recordings lasted for 4 minutes. (3) Measurement of Ventilatory Response to Carbon Dioxide. For measurement of the ventilatory response to CO2, animals were exposed to air containing 7% CO2. The animals breathed from a funnel fixed in the front wall of a chamber made of an opaque material (FIG. 1b). The animals were exposed to the gas mixture containing 7% CO2 (mixed with 60% O2 and 33% N2) for 5 minutes with recording of respiratory activity for another 2 minutes (a total recording duration of 7 minutes).
The 5HT1A receptor antagonist, p-MPPI (RBI, Natick, Mass.) was also dissolved in 0.9% saline and given i.p. in a dose of 3 mg/kg (pH 7.4 and final volume of 0.5 ml). […] Vehicle solution (VEH) was 0.9% saline and also injected at i.p. (pH 7.4; volume: 0.5 ml/rat).
Baseline respiratory function was measured under room air ventilation and after the animal was stabilized inside a boy cylinder (FIGS. 1a and b) for 30 minutes at each time point prior to SCI and after injury. Immediately following the evaluation of baseline respiration, the animals were let to breathe air containing 7% CO2 for 7 minutes to monitor their ventilatory response to CO2 stimulus (Teng et al., 1998a and 1999).

Another assay relates to child with apneusis. The following applies: buspirone orally 8 mg/day; cited from earlier work.
A further assay concerns mdx mutant mice. To be noted: clenbuterol orally 1.0–1.5 mg/kg body weight/day, one year, cited from earlier work.
Setting [1] is: buspirone 3.0 mg/kg i.p. or s.c. (FIGS. 6 and 7).
[2] abbreviates: 7% CO2 at 15 & 16 min after buspirone 1.5 mg/kg i.p.
Setting [3] is: baseline (room air), 3 & 4 min post buspirone 1.5 mg/kg i.p.
Where [4] appears, read: baseline (room air), 8 & 9 min post buspirone 1.5 mg/kg i.p.
The mark [5] stands for this setting: 24 hours p.i., buspirone 1.5 mg/kg i.p.

For `O=C1CC2(CCCC2)CC(=O)N1CCCCN1CCN(c2ncccn2)CC1` [buspirone], in the assay with SOD1 mice (setting [1]), the respiratory frequency result is “reduces” and the tidal volume result is “significantly increases”. The “respiratory function (tidal volume, respiratory rate)” value with SOD1 mice (buspirone 3.0 mg/kg subcutaneous, 2 minutes after treatment) is recorded as “significantly improved”. For the same molecule, in the assay on T8 SCI rats (setting [2]), the “Te (expiratory time)” value came out at 0.21 ± 0.03, the “Ti (inspiratory time)” value was 0.17 ± 0.01, the “Tv (tidal volume)” value is 1.46 ± 0.14 mL and the “Ve (minute ventilation)” value came out at 240.9 ± 44.8 mL/min. For the same molecule, in the assay with T8 SCI rats (setting [3]), the “Te (expiratory time)” value is 0.27 ± 0.03↑, the “Ti (inspiratory time)” value is reported as 0.19 ± 0.01, the “Tv (tidal volume)” value came to 1.17 ± 0.13 mL and the “Ve (minute ventilation)” value turned out to be 171.3 ± 30.1 mL/min. Besides, in the assay with T8 SCI rats (setting [4]), the “Te (expiratory time)” value was determined as 0.40 ± 0.05, the “Ti (inspiratory time)” value came to 0.20 ± 0.03 and the “Ve (minute ventilation)” value was determined as 101.8 ± 11.4 mL/min. In addition, in the assay with T8 SCI rats (setting [5]), the “SCI reduced Vt values after treatment” value is given as “levels indiscenible from pre-injury readings”, the “duration of effect on Vt (printed Bt)” value is recorded as “up to 9 minutes” and the “effect on abnormal respiratory function resulting from T8 SCI” value is given as “reversed the abnormal respiratory function”. In addition, the apneusis entry in the assay with child with apneusis is “reverses apneusis”.
On to `CC(C)(C)NCC(O)c1cc(Cl)c(N)c(Cl)c1` (centres unmarked) [clenbuterol], for which, in the assay on mdx mutant mice (mdx mice), the “increase in myosin concentration of mdx diaphram (DIA)” value is reported as 22%. Besides, in the assay with mdx mutant mice (normal control and mdx mice), the “soleus (SOL) weight and SOL muscle weight to body weight ratio” value is reported as “significantly increase”.

(Values after patent US7071194B2, “Method for improving respiratory function and inhibiting muscular degeneration” (priority 2000, dated 2006).)
